Results as given in a melting point compilation (Tetko et al.; mined from patent text by program, amines drawn as free bases though some values may be those of a salt).

| melting point [°C] | SMILES |
| --- | --- |
| 139 to 141 | COc1ccc2cc(NCc3ccc(OCc4ccccc4)cc3)ccc2c1 |
| 187 to 189 | O=C(Nc1ccc2c(c1)CCC(CCN1CCCC1)=C2)c1ccc(-c2ccc(F)cc2)cc1 |
| 212 to 214 | CCCc1nn(C)c2c(=O)[nH]c(-c3cc([N+](=O)[O-])cnc3OC3CCC3)nc12 |
| 135 to 137 | COc1ccc(-c2c(C(=O)CC(C)C)c(C)nc3cc(OC)c(OC)cc23)cc1OC |
| 169 to 170 | Cc1ccccc1NC(=O)CN1CC2CCC(C1)N2S(=O)(=O)c1ccccc1 |
| 216 to 218 | CNC(=O)[C@H]1CN(c2ccc3c(c2)oc(=O)n3C(C)C)C(=O)O1 |
| 207 to 208 | O=c1c2cc(F)c(Cl)nc2n(-c2cccc(C(F)(F)F)c2)c(=O)n1OCc1ccccc1 |
| 128 to 130 | COc1ccc2cccc(C(F)CNC(C)=O)c2c1 (stereo not drawn) |
| 85 to 86 | CC(C)(C)OC(=O)N1CC(NS(=O)(=O)c2ccc(Oc3ccccc3)cc2)C(SC(C)(C)C)C1 (stereo not drawn) |
| 236 | Cc1cc2c(=O)n(CCN3CCC(Nc4nc5ccccc5n4Cc4ccc(F)cc4)CC3)c(=S)[nH]c2s1 |
| 51 to 55 | ICCC(c1ccccc1)c1ccccc1 |
| 156 to 159 | Cc1nc(N2CCN(C)CC2)nc(N)c1-c1cc(Cl)cc(Cl)c1Cl |
| 73 to 76 | C[C@@H]1O[C@@]1(Cn1ccnc1)c1ccc(F)cc1F |
| 136 to 141 | N#CCSc1nc(Cl)cc(-c2ccccc2)n1 |
| 88 to 91 | FC(F)(F)c1cccc(N2CCN(Cc3ccc4c(c3)NCCN4)CC2)c1 |
| 214 | Cc1nc(-c2ccc(C(F)(F)F)cc2)oc1Sc1ccc(Cc2nn[nH]n2)cc1 |
| 72.5 to 73.9 | CCCCCC(=O)NN |
| 157 to 159 | O=C(CCCCCN1CCN(c2ccccc2)CC1)Nc1ccc(O)cc1 |
| 241 to 242 | CS(=O)(=O)CCNC(=O)c1ccc(-c2ccc3cnc(Nc4ccc(N5CCOCC5)cc4)nn23)cc1 |
| 314 to 318 | CSc1nc2[nH]c3c(c(=O)n2n1)SCCC3 |
| 256 to 260 | Nc1cc(=O)n(Cc2ccccc2)c(=O)n1-c1cccc([N+](=O)[O-])c1 |
| 225 to 227 | CN(Cc1cc2ccccc2n1C)C(=O)/C=C/c1ccc(NC(=O)CCC(N)=O)nc1 |
| 148 | Cc1cc(-n2ccnc2)c2cccc(OCc3c(Cl)ccc(S(=O)(=O)N4CCOCC4)c3Cl)c2n1 |

| melting point [°C] | SMILES |
| --- | --- |
| 104 to 105 | CC(C)(C)OC(=O)NC(CO)COc1noc2ccc(NC=O)cc12 (stereo not drawn) |
| 244 to 246 | Nc1nc2cccnc2c2c1nc(CO)n2CC1(O)CCC1 |
| 188 to 189 | CC(=O)Nc1cc([N+](=O)[O-])ccc1CBr |
| 100 | CCCCCCCCCCOC(=O)C1=C(C)OC(N)=C(C(=O)OCC)C1c1cccc([N+](=O)[O-])c1 (stereo not drawn) |
| 166 to 168 | CC(C)NCC(O)COc1ccccc1-c1ccc(=S)[nH]n1 (stereo not drawn) |
| 181 to 183 | O=C(O)COCC(=O)NC12CC3CC(CC(C3)C1)C2 |
| 141 to 143 | CCCCCCCCCCCCSc1nnn(C(C(=O)Nc2c(OC)cc(OC)cc2OC)c2ccccc2)n1 (stereo not drawn) |
| 77 to 79 | CCCCCc1c(C(C)C)nc(C(C)C)c(CNC)c1-c1ccc(F)cc1 |
| 98 to 100 | CCCCNC(=O)c1ccc(Cl)c(-n2nc(CCCC)n(Cc3ccc(-c4ccccc4S(=O)(=O)NC(=O)OC(C)(C)C)cc3F)c2=O)c1 |
| 154 to 161 | C[C@@H](n1cnc2cc(-c3ccc(C(=N)NCCN)cc3)sc2c1=O)[C@](O)(Cn1cncn1)c1ccc(F)cc1F |
| 203 to 205 | O=S(=O)(Nc1cnc(Oc2cc3ccccc3cn2)c(Cl)c1)c1ccc(Cl)cc1Cl |
| 44 | CCCCCCCOc1ccc(C2CCC(=O)O2)cc1 (single isomer, unassigned) |
| 112 | COc1ccc2cccc(C(=O)C(N)=O)c2c1 |
| 75 | CC(C)COC(=O)Nc1cc(Cl)cc(Cl)c1 |
| 87 to 89 | Cc1cc(C)cc(C(=O)N2CCN(C(=O)CNC3CCN(Cc4ccc(-c5ccccc5)cc4)CC3)C(c3ccc(Cl)c(Cl)c3)C2)c1 (racemic) |
| 63 to 64 | Cc1ccnc(F)c1N |
| 124 | C=CCOc1ccccc1C=NNC(=N)N |
| 193 to 196 | CC(=O)C1(O)CCC2C3CCC4=CC(=O)CCC4(C)C3C(Cl)CC21C (stereo not drawn) |
| 45 to 47 | COc1ccc(-c2cnc(NC(=S)Cc3ccccc3)c(Cc3ccccc3)n2)cc1 |
| 167 to 169 | COc1ccc2[nH]c(C(=O)c3ccc(F)cc3)cc2c1 |
| 170 to 179 | CCOC(=O)c1cnc2ccc3nc(S(C)(=O)=O)sc3c2c1Cl |
| 213 to 216 | CC1(C)CC(=O)c2c(S(C)(=O)=O)sc(-c3cc[nH]n3)c2C1 |
| 278 to 280 | CCC(=O)N1CC(=O)C2=C(C1)CN1NC(N3CCOCC3)=NC1=N2 |

| melting point [°C] | SMILES |
| --- | --- |
| 189 to 190 | COc1cc(Nc2c(C#N)cnc3cc(-c4ccc(CN5CCN(CCO)CC5)cc4)sc23)c(Cl)cc1Cl |
| 60 to 79 | CCOc1ccccc1Nc1nc(Nc2cc3c(cc2OC)CCN(CC(=O)N(C)C)CC3)ncc1Cl |
| 121 to 126 | CCCCCCCN(C[C@H]1CCC[C@H](CN(CCCCCCC)C(=O)Nc2ccc(N(C)C)cc2)C1)C(=O)Nc1ccc(N(C)C)cc1 (relative stereo) |
| 181 | Cc1cc2c(N=C3SC[C@@H]4Cc5ccccc5CN34)cccc2cn1 |
| 88 to 89 | CC(C)(C)OC(=O)N1CCc2ccccc2CC1 |
| 167 to 168 | COCOc1cc(CBr)c2nc3cccc(OCOC)c3nc2c1 |
| 164 to 165 | CCCCNS(=O)(=O)NC(=O)OCc1ccc(OCCOC)cc1Oc1ncc(C(F)(F)F)cc1Cl |
| 332 to 333 | O=C1CCC(c2ccc(NC3=NCCO3)cc2)=NN1 |
| 193 to 195 | CCn1nc(O)nc1S |
| 140 to 143 | Brc1ccc2cnncc2c1 |
| 54.5 to 55.5 | COC(=O)c1cccc2c(C)c(C)oc12 |
| 126 to 127 | COC1=C(OC)C(=O)NC1=O |
| 117 to 119 | CNC(=O)n1nc(Oc2ccc(C(F)(F)F)cc2[N+](=O)[O-])c(C)c1C |
| 218 to 220 | CCC(=O)N(C)C1CCN(Cc2cc3cccnc3n(-c3ccccc3F)c2=O)CC1 |
| 133 to 136 | CCC(C(C)=CC(CNC(=O)c1nc[nH]c1C)=NO)[N+](=O)[O-] (stereo not drawn) |
| 97 to 98 | CCCn1nc(-c2cc(C(C)(C)C)c(O)c(C(C)(C)C)c2)c2cccnc21 |
| 222 to 226 | COc1ccc2c(c1[N+](=O)[O-])CN(S(C)(=O)=O)CC(=O)N2 |
| 101 to 102 | COc1ccccc1NC(=O)CCCC(C)=O |
| 144 to 147 | CCCC1=C(C(=O)OCC)C(c2ccccc2Cl)c2cn(C(=O)OC(C)(C)C)nc2N1 (stereo not drawn) |
| 95 to 97 | COCCOc1ccc(OCC(O)CNCCOc2ccc(OC)cc2)c(C#N)c1 (stereo not drawn) |
| 149 | NCCSc1cc(N)c([N+](=O)[O-])cc1N |
| 195 to 198 | O=c1c2c(n(-c3cccc(Cl)c3)c3ncccc13)CCCC2 |
| 141 to 143 | O=C(N[C@H]1C[C@H](C(=O)O)Nc2cc(Cl)cc(Cl)c21)c1ccccc1Cl (relative stereo) |

| melting point [°C] | SMILES |
| --- | --- |
| 158 to 160 | CCCCn1c(C)c(Br)c(=O)c(C(=O)Nc2c(CC)cccc2CC)c1C |
| 295 to 297 | Cn1cc(C(=O)O)c(=O)c2oc3ccc(Cl)cc3c(=O)c21 |
| 60 to 62 | Fc1ccc(C2Cc3cnc(NCCCN4CCCCC4)nc3-c3ccccc32)cc1 (stereo not drawn) |
| > 220 | NC(N)=NC(=O)c1ccccc1Sc1ccccc1C(=O)N=C(N)N |
| 68 to 69 | CC(C)C1Cc2cnc3c(c2C1=O)CCO3 (stereo not drawn) |
| 101 to 102 | COC(=O)Cc1ccc(OC)c([N+](=O)[O-])c1 |
| 190 to 192 | O=C1c2cc([N+](=O)[O-])ccc2CCn2cccc21 |
| 85 to 90 | O=C(O)C(CNC(=O)C1Cc2ccccc2N1S(=O)(=O)c1ccc(-c2cccc(C(F)(F)F)c2)cc1)Cc1ccccc1 (stereo not drawn) |
| 212 to 214 | CCN1C(=O)CCCc2cc(Nc3ncc(Cl)c(Nc4ccc(N5CCOCC5)cc4OC)n3)c(OC)cc21 |
| 137 to 140 | COc1ccccc1N1CCN(CCCNC(=O)Cc2cccc3c(=O)c(C)c(-c4ccccc4)oc23)CC1 |
| 185 to 188 | CC12CCC(OC(=O)c3ccc([N+](=O)[O-])cc3)CC1=CCC1C2CCC2(C)C(=NO)CCC12 (stereo not drawn) |
| 157 to 159 | O=C1N(N2CCOCC2)c2ccccc2C1(Cc1ccccn1)Cc1ccccn1 |
| 191 to 192 | Cc1oc(-c2ccccc2)nc1C=Cc1ccc(/C=C/C=O)cc1 |
| 174 to 175 | O=C1COc2cc(SCc3ccc(Cl)cc3)ccc2N1 |
| 126 to 127 | CC(CO)(Sc1cc2ccccc2[nH]1)c1ccccc1 (stereo not drawn) |
| 189 to 190 | CN(C(=O)c1ccc(Cn2ccc3ncnc-3c2)o1)C1CCCCC1 |
| 163 to 165 | CN1CC(c2ccc(S(C)(=O)=O)cc2)=C(c2ccccc2)C1=O |
| 112 to 113 | CCOC(=O)c1ncsc1-c1cc(F)cc(F)c1 |
| 116 to 118 | CCOC(=O)N1C=CC(c2c(-c3ccc(OC)cc3)nc3n2CCC3)C=C1 |
| 242 | CCCC1=Cc2c(c(C)c(C)c3oc(C(=O)O)cc23)C1=O |
| 214 to 216 | CC(=O)OCC1OC(n2cc(Cc3ccc(Cl)cc3)c3c(Cl)cccc32)C(OC(C)=O)C(OC(C)=O)C1OC(C)=O (stereo not drawn) |

| SMILES | melting point [°C] |
| --- | --- |
| COc1c(C(=O)NC2CN3CCC2CC3)cc(Cl)c2c1CCCN2 (stereo not drawn) | 105 to 108 |
| CC(=O)N[C@H](CO)C(=O)NCc1ccc(N=[N+]=[N-])cc1 | 161 to 163 |
| COc1ccc(C2(CCN3CCC(C(=O)c4nc5ccccc5[nH]4)CC3)CCN(C(=O)c3cc(OC)c(OC)c(OC)c3)C2)cc1OC (stereo not drawn) | 113 to 116 |
| Cc1nc(C(Cl)(Cl)Cl)nc(OC(=O)C(Cl)(Cl)Cl)c1Cl | 92 |
| CC1=NN=C(c2cccc(N)c2)c2cc3c(cc2C1)OCO3 | 190 to 191 |
| N#Cc1cc(C(O)CN(Cc2ccccc2)Cc2ccccc2)cc2c1NCC2 (stereo not drawn) | 139 to 140 |
| Cc1ccc(C#CC2(O)CN3CCC2CC3)nc1 (stereo not drawn) | 176 to 180 |
| CCc1nccn1CC1CC2c3cccc4[nH]cc(c34)CC2N(C)C1 (stereo not drawn) | 232 to 237 |
